The results in this text go back to patent US20130204033A1, “ANTIPROLIFERATIVE COMPOUNDS, CONJUGATES THEREOF, METHODS THEREFOR, AND USES THEREOF” (Medarex, Inc., priority 2009, published 2013).

What all share (type): cell-based, human
For assay [1], the system named is MDA-MB-231. Nature of the assay: 3H thymidine proliferation assay, MDA-MB-231. The protocol: (§1) This example generally describes the procedures used to assay the antiproliferative activity of compounds of this invention or their conjugates. Human tumor cell lines were obtained from the American Type Culture Collection (ATCC), P.O. Box 1549, Manassas, Va. 20108, USA, and cultured according to instruction from the ATCC. Cells were seeded at 1.0×10^3 or 1.0×10^4 cells/well in 96-well plates for 3 h for ATP assays or ^3H thymidine assays, respectively. 1:3 serial dilutions of free (unconjugated) compounds or their conjugates were added to the wells. Plates were allowed to incubate for 24 to 72 h. The ^3H thymidine plates were pulsed with 1.0 μCi of ^3H-thymidine per well for the last 24 hours of the total incubation period, harvested, and read on a Top Count Scintillation Counter (Packard Instruments, Meriden, Conn.). ATP levels in the ATP plates were measured using the […]-GLO® Luminescent Cell Viability kit following the manufacturer's manual and read on a GLOMAX® 20/20 luminometer (both from Promega, Madison, Wis., USA). The EC50 values—the concentration at which an agent inhibits or reduces cell proliferation by 50% —were determined using PRISM™ software, version 4.0 (GraphPad Software, La Jolla, Calif., USA).
(§2) Using the ^3H thymidine or the ATP luminescence assay, or both, the activities of compounds of this invention were assayed against the following cancer cell lines: HCT-15 (colorectal cancer, multi-drug resistant (MDR)); Hep3B (liver cancer); LNCaP (prostate cancer, androgen receptor positive (AR^+)); MDA-MB-231 (breast cancer, estrogen receptor, progesterone receptor, and Her2 negative (triple negative)); A2058 (melanoma); U-87 MG (glioblastoma); NCI-H460 (NSCLC); A549 (NSCLC); HPAC (pancreatic cancer, primary); PC3 (prostate cancer, AR); BT474 (breast cancer, Her2 highly positive (Her2hi)); SKOV3 (ovarian cancer, Her2hi); 786-O (renal cancer); UO-31 (renal cancer, MDR); NCI-H740 (SCLC); DMS53 (SCLC); SK-BR3 (breast cancer, Her2hi); ZR-75 (breast cancer, estrogen receptor positive); OVCAR3 (ovarian cancer); HL-60 (APL); OVCAR8/Adr (ovarian cancer, MDR); CEM-Cl (ALL); Nomo-1 (AML); RPMI-8226 (MM)); Raji (lymphoma); SW-480 (colorectal cancer, metastatic); SW-620 (colorectal cancer); and H226 (lung cancer). (Not all compounds were assayed against all cell lines.)
(§3) Table 2 provides the data for proliferation assays using the ^3H thymidine method, with an incubation period of 72 h.

Assay [2] has as its system NCI-H460. In words: 3H thymidine proliferation assay, NCI-H460. The protocol: as §1, §2, §3
Assay [3] has as its system PC3. Nature of the assay: 3H thymidine proliferation assay, PC3. The protocol: as §1, §2, §3
Assay [4] deals with BT474. In words: 3H thymidine proliferation assay, BT474. As to the method: as §1, §2, §3
Assay [5] concerns OVCAR8. Nature of the assay: 3H thymidine proliferation assay, OVCAR8. As to the method:
as §1, §2, §3

Assay [6] deals with CEM-C1. Nature of the assay: 3H thymidine proliferation assay, CEM-C1. The protocol:
as §1, §2, §3

For assay [7], the system named is Nomo-1. Nature of the assay: 3H thymidine proliferation assay, Nomo-1. The protocol:
as §1, §2, §3

Assay [8] deals with RPMI-8226. Nature of the assay: 3H thymidine proliferation assay, RPMI-8226. The protocol: as §1, §2, §3
The subject of assay [9] is Hep3B. In words: ATP luminescence proliferation assay, Hep3B. As to the method: as §1, §2
(§4) Table 3 provides the data for the ATP luminescence proliferation assays, with an incubation period of 48, 72, or 96 h, as noted.

Assay [10] concerns PC3. Nature of the assay: ATP luminescence proliferation assay, PC3. As to the method:
as §1, §2, §4

The test system of assay [11] is SKOV3. In words: ATP luminescence proliferation assay, SKOV3. The protocol: as §1, §2, §4
Assay [12] relates to SK-BR3. Nature of the assay: ATP luminescence proliferation assay, SK-BR3. The protocol: as §1, §2, §4
Assay [13] deals with HL-60. Nature of the assay: ATP luminescence proliferation assay, HL-60. The protocol:
as §1, §2
FIGS. 12a and 12b show illustrative plots for ATP luminescence proliferation assays for a second set of compounds of this invention, against HL-60 and 786-O cells, respectively, with an incubation period of 72 h. FIGS. 12c and 12d show the plots for ^3H thymidine proliferation assays for the same set of compounds, again against HL-60 and 786-O cells, respectively, with a 72 h incubation period. In each instance, doxorubicin was used as a comparative compound.
as §4

Assay [14] relates to CEM-Cl. Nature of the assay: ATP luminescence proliferation assay, CEM-C1. The protocol: as §1, §2, §4
Assay [15] deals with Raji. Nature of the assay: ATP luminescence proliferation assay, Raji. As to the method: as §1, §2, §4
The subject of assay [16] is SW-480. Nature of the assay: ATP luminescence proliferation assay, SW-480. The protocol: as §1, §2, §4
In assay [17] the test system is A2058. Nature of the assay: 3H thymidine proliferation assay, A2058. Conditions: Homo sapiens, A2058; 3H thymidine method, 72 h incubation. As to the method: as §1, §2, §3
Where [18] appears, read: Homo sapiens, MDA-MB-231, read-out: EC50, MDA-MB-231, 3H thymidine method, 72 h incubation.
Where [19] appears, read: Homo sapiens, NCI-H460, read-out: EC50, NCI-H460, 3H thymidine method, 72 h incubation.
Setting [20] is: Homo sapiens, PC-3, read-out: EC50, PC3, 3H thymidine method, 72 h incubation.
The mark [21] stands for this setting: Homo sapiens, BT-474, read-out: EC50, BT474, 3H thymidine method, 72 h incubation.
The mark [22] stands for this setting: Homo sapiens, OVCAR-8, read-out: EC50, OVCAR8, 3H thymidine method, 72 h incubation.
Setting [23] is: Homo sapiens, CEM/C1, read-out: EC50, CEM-C1, 3H thymidine method, 72 h incubation.
Where [24] appears, read: Homo sapiens, NOMO-1, read-out: EC50, Nomo-1, 3H thymidine method, 72 h incubation.
Where [25] appears, read: Homo sapiens, RPMI-8226, read-out: EC50, RPMI-8226, 3H thymidine method, 72 h incubation.
The mark [26] stands for this setting: Homo sapiens, 48 h, read-out: EC50 Hep3B (48 h), ATP luminescence, Hep3B, 48 h incubation.
[27] abbreviates: Homo sapiens, PC-3, 48 h, read-out: EC50 PC3 (48 h), ATP luminescence, PC3, 48 h incubation.
Setting [28] is: Homo sapiens, SK-OV-3, 48 h, read-out: EC50 SKOV3 (48 h), ATP luminescence, SKOV3, 48 h incubation.
[29] abbreviates: Homo sapiens, SK-BR-3, 48 h, read-out: EC50 SK-BR3 (48 h), ATP luminescence, SK-BR3, 48 h incubation.
Setting [30] is: Homo sapiens, HL-60, 72 h, read-out: EC50 HL-60 (72 h), ATP luminescence, HL-60, 72 h incubation.
Setting [31] is: Homo sapiens, CEM/C1, 72 h, read-out: EC50 CEM-C1 (72 h), ATP luminescence, CEM-C1, 72 h incubation.
[32] abbreviates: Homo sapiens, 72 h, read-out: EC50 Raji (72 h), ATP luminescence, Raji, 72 h incubation.
[33] abbreviates: Homo sapiens, SW480, 96 h, read-out: EC50 SW480 (96 h), ATP luminescence, SW480, 96 h incubation.

Structures are written as SMILES. Like-named read-outs stand apart in the source and are kept apart here. Some results are limits rather than exact numbers.

For `CC[C@H](C)[C@H](NC(=O)[C@H]1CCCCN1C)C(=O)N(COC(=O)CC(C)C)[C@H](C[C@@H](OC(C)=O)c1nc(C(=O)N[C@@H](Cc2ccccc2)C[C@H](C)C(=O)O)cs1)C(C)C` [Tub D, tubulysin D, reference compound], the EC50 in assay [1] (3H thymidine method, 72 h incubation, read-out: EC50, MDA-MB-231) turned out to be 0.091 nM; in assay [2] (3H thymidine method, 72 h incubation, read-out: EC50, NCI-H460), 0.032 nM; in [3] (3H thymidine method, 72 h incubation, read-out: EC50, PC3), 0.038 nM; in [4] (3H thymidine method, 72 h incubation, read-out: EC50, BT474) it was 0.51 nM; in assay [5] (3H thymidine method, 72 h incubation, read-out: EC50, OVCAR8) it was 0.17 nM; in assay [6] (3H thymidine method, 72 h incubation, read-out: EC50, CEM-C1), 0.018 nM. Further, the EC50 was 0.042 nM in [7] (3H thymidine method, 72 h incubation, read-out: EC50, Nomo-1); 0.037 nM in [8] (3H thymidine method, 72 h incubation, read-out: EC50, RPMI-8226); 0.0012 nM in assay [9] (ATP luminescence, 48 h incubation, read-out: EC50 Hep3B (48 h)); 0.039 nM in assay [10] (ATP luminescence, PC3, 48 h incubation, read-out: EC50 PC3 (48 h)); 0.029 nM in [11] (ATP luminescence, SKOV3, 48 h incubation, read-out: EC50 SKOV3 (48 h)); 0.025 nM in [12] (ATP luminescence, SK-BR3, 72 h incubation, read-out: EC50 SK-BR3 (72 h)). Also, the EC50 stood at 0.0096 nM in assay [13] (ATP luminescence, HL-60, 72 h incubation, read-out: EC50 HL-60 (72 h)); 0.003 nM in assay [14] (ATP luminescence, CEM-C1, 72 h incubation, read-out: EC50 CEM-C1 (72 h)); 0.0048 nM in assay [15] (ATP luminescence, 72 h incubation, read-out: EC50 Raji (72 h)); 0.02 nM in [16] (ATP luminescence, SW480, 96 h incubation, read-out: EC50 SW480 (96 h)).

In the case of `CC[C@H](C)[C@H](NC(=O)[C@H]1CCCCN1C)C(=O)N(C)[C@H](C[C@@H](OC)c1nc(C(=O)NC(Cc2ccccc2)C[C@H](C)C(=O)O)cs1)C(C)C` (some centres unmarked) [Compound 15], the EC50 in [1] (setting [18]) stood at 1.3 nM; in assay [17] it was 1.6 nM; in assay [2] (setting [19]) it was 2 nM; in assay [3] (setting [20]), 1.7 nM; in assay [4] (setting [21]), 7.1 nM; in [5] (setting [22]), 423 nM. The EC50 in assay [6] (setting [23]) was 0.93 nM; in assay [7] (setting [24]), 2.3 nM; in assay [8] (setting [25]), 3.3 nM; in assay [9] (setting [26]) it was 6.3 nM; in [10] (setting [27]), > 100 nM; in assay [11] (setting [28]), 4.2 nM. For the same compound, the EC50 in assay [12] (setting [29]) stood at 3.9 nM; in assay [13] (setting [30]), 2.7 nM; in assay [14] (setting [31]) it was 2.6 nM; in assay [15] (setting [32]), 2.5 nM; in [16] (setting [33]), 5.6 nM.

For `CCCC(NC(=O)c1csc([C@@H](C[C@H](C(C)C)N(C)C(=O)[C@@H](NC(=O)[C@H]2CCCCN2C)[C@@H](C)CC)OC)n1)C(=O)OC` (some centres unmarked) [Compound 17], the EC50 in [1] (setting [18]) was 84 nM; in assay [17] it was > 100 nM; in assay [2] (setting [19]) it was > 100 nM; in [3] (setting [20]), 82 nM; in assay [4] (setting [21]) it was > 100 nM; in assay [5] (setting [22]), 2970 nM. For the same compound, the half-maximal effective concentration (EC50) is 43 nM in [6] (setting [23]); 6.8 nM in assay [7] (setting [24]); 47 nM in assay [8] (setting [25]); > 100 nM in [9] (setting [26]); > 100 nM in assay [10] (setting [27]); 58 nM in assay [11] (setting [28]). Further, the EC50 in assay [12] (setting [29]) came out at 24 nM; in assay [13] (setting [30]) it was 7.4 nM; in [14] (setting [31]) it was 26 nM; in assay [15] (setting [32]), 27 nM; in [16] (setting [33]), 92 nM.
